Active and inactive are the calls of the source. The rule behind the calls is not given here.

The subject of data set [1] is Mus musculus. Put plainly: Anti-inflammatory activity in po dosed Swiss Webster mouse assessed as inhibition of ATP-induced paw edema pretreated for 60 mins followed by ATP administration and measured after 30 mins. Type of data set: functional.
Data set [2] has as its target T1, P2X purinoceptor 7 (Homo sapiens, UniProt Q99572).
T1 sequence (Q99572 whole entry): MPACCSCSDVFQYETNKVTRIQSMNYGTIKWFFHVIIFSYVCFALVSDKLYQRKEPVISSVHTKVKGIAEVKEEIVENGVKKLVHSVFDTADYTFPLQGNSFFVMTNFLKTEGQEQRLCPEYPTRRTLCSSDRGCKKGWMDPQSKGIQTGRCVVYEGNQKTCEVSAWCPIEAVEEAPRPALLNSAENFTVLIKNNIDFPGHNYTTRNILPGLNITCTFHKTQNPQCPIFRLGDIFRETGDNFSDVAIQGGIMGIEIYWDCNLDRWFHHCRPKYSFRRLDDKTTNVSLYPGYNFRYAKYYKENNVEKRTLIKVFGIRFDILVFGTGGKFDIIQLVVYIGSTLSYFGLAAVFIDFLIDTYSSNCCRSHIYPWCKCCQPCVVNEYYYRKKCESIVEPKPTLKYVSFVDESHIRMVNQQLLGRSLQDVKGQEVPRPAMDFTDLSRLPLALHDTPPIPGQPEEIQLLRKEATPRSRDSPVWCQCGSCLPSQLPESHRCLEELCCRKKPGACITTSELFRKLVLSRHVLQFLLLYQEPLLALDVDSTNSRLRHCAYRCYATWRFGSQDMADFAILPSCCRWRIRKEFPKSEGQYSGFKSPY
Put plainly: Antagonist activity at human P2X7 receptor in PMA-differentiated THP-1 macrophages assessed as inhibition of ATP-induced IL-1beta release preincubated for 30 mins followed by ATP addition measured after 30 mins by ELISA. (ELISA stands for enzyme-linked immunosorbent assay.)

Data set [3] has as its system Mus musculus. The data set is described as follows: Anti-inflammatory activity in Swiss mouse assessed as inhibition of LPS-induced pleural accumulation in mononuclear cells at 1 to 100 ng/kg, ip pretreated for 1 hr followed by LPS stimulation and measured after 24 hrs by May-Grunwald-Giemsa staining-based Neubauer chamber based optical microscopy. Type of data set: functional, organism-based.

Data set [4] has as its system Mus musculus. The data set is described as follows: Anti-inflammatory activity in ip dosed Swiss Webster mouse assessed as inhibition of ATP-induced paw edema pretreated for 60 mins followed by ATP administration and measured after 30 mins. Type of data set: functional.
The nature of data set [5]: Apparent permeability across apical to basolateral side in human Caco2 cells at 100 uM after 60 mins by lucifer yellow dye-based fluorescence assay. Type of data set: ADME, cell-based. As to conditions: Caco-2.
For data set [6], the target named is T2, P2X purinoceptor 7 (Mus musculus, UniProt Q9Z1M0).
T2 sequence (Q9Z1M0 whole entry): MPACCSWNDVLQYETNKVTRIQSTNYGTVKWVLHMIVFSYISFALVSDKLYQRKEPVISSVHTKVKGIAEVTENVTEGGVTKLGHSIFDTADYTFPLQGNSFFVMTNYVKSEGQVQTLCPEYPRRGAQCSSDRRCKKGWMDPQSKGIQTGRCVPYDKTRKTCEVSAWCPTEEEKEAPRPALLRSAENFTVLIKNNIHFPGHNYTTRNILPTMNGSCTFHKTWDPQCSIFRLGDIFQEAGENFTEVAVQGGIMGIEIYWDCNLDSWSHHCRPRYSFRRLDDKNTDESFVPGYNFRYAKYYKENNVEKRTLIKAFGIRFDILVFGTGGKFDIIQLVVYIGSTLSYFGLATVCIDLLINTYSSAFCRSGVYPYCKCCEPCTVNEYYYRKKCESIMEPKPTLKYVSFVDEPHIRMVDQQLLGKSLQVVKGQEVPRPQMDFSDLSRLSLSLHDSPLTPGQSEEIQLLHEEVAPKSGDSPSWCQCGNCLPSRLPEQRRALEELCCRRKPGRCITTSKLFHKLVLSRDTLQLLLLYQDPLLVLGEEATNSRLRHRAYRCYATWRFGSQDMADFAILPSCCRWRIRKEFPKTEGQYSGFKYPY
Put plainly: Antagonist activity at P2X7 receptor in Swiss mouse peritoneal macrophages assessed as inhibition of BzATP-induced ethidium iodide uptake after 30 mins by spectrofluorometric analysis.

In data set [7] the target is T1, P2X purinoceptor 7. Put plainly: Antagonist activity at human P2X7 receptor expressed in HEK293 cells assessed as inhibition of ATP-induced ethidium iodide uptake preincubated for 10 mins followed by ATP addition measured after 20 mins by spectrofluorometric analysis. Type of data set: cell-based.
The target of data set [8] is T3, P2X purinoceptor 7 (Mus musculus) (UniProt Q9Z1M0).
T3 sequence (whole entry): T2 sequence (Q9Z1M0 whole entry)
Put plainly: Antagonist activity at mouse P2X7 receptor expressed in HEK293 cells assessed as inhibition of ATP-induced ethidium iodide uptake at 10 uM preincubated for 10 mins followed by ATP addition measured after 20 mins by FLIPR assay relative to 1 mM ATP. Type of data set: cell-based.

Data set [9] deals with Mus musculus. The data set is described as follows: Anti-inflammatory activity in Swiss mouse assessed as inhibition of LPS-induced protein extravasation in thoracic cavity at 100 ng/kg, ip pretreated for 1 hr followed by LPS stimulation and measured after 24 hrs. Type of data set: functional, organism-based.
A short description of data set [10]: Intrinsic clearance in mouse liver microsomes assessed per mg protein at 1 uM measured up to 45 mins. Type of data set: ADME, microsome. As to conditions: read-out: CLH. For orientation: Liver microsomes are vesicles of endoplasmic reticulum, rich in cytochrome P450 enzymes.
For data set [11], the target named is T2, P2X purinoceptor 7. Put plainly: Antagonist activity at P2X7 receptor in Swiss mouse peritoneal macrophages assessed as inhibition of BzATP-induced current at holding potential of -60 mV preincubated for 5 mins followed by BzATP addition measured after 5 mins by Whole cell patch-clamp analysis.
Data set [12] relates to Mus musculus. The data set is described as follows: Anti-inflammatory activity in Swiss mouse assessed as inhibition of LPS-induced pleural accumulation in eosinophils at 1 to 100 ng/kg, ip pretreated for 1 hr followed by LPS stimulation and measured after 24 hrs by May-Grunwald-Giemsa staining-based Neubauer chamber based optical microscopy. Type of data set: functional, organism-based.

Data set [13] concerns Mus musculus. The data set is described as follows: Anti-inflammatory activity in Swiss mouse assessed as inhibition of LPS-induced pleural accumulation in neutrophils cells at 100 mg/kg, ip pretreated for 1 hr followed by LPS stimulation and measured after 24 hrs by May-Grunwald-Giemsa staining-based Neubauer chamber based optical microscopy. Type of data set: functional, organism-based.

The subject of data set [14] is Mus musculus. The data set is described as follows: Anti-inflammatory activity in Swiss mouse assessed as inhibition of LPS-induced pleural accumulation in eosiniphils at 100 mg/kg, ip pretreated for 1 hr followed by LPS stimulation and measured after 24 hrs by May-Grunwald-Giemsa staining-based Neubauer chamber based optical microscopy. Type of data set: functional, organism-based.

The test system of data set [15] is Mus musculus. The data set is described as follows: Anti-inflammatory activity in Swiss mouse assessed as inhibition of LPS-induced nitric oxide production in pleural washes at 100 ng/kg, ip pretreated for 1 hr followed by LPS stimulation measured after 24 hrs by Lowry/Griess analysis. Type of data set: functional, organism-based. For orientation: The Griess reaction detects nitrite, a stable product of nitric oxide.

Data set [16] relates to Mus musculus. Put plainly: Anti-inflammatory activity in Swiss mouse assessed as inhibition of LPS-induced pleural accumulation in total leucocytes at 100 mg/kg, ip pretreated for 1 hr followed by LPS stimulation and measured after 24 hrs by May-Grunwald-Giemsa staining-based Neubauer chamber based optical microscopy. Type of data set: functional, organism-based.
The subject of data set [17] is Mus musculus. Put plainly: Anti-inflammatory activity in Swiss mouse assessed as inhibition of LPS-induced nitric oxide production in pleural washes at 100 mg/kg, ip pretreated for 1 hr followed by LPS stimulation and measured after 24 hrs by Lowry/Griess analysis. Type of data set: functional, organism-based.
Data set [18] has as its system Mus musculus. Put plainly: Anti-inflammatory activity in Swiss mouse assessed as inhibition of LPS-induced protein extravasation in thoracic cavity at 100 mg/kg, ip pretreated for 1 hr followed by LPS stimulation and measured after 24 hrs. Type of data set: functional, organism-based.

As usually defined, the IC50 is the point on the concentration scale where inhibition reaches its midpoint. For orientation: Papp A→B means the apparent permeability from the apical to the basolateral side of a cell layer. As to `CCOCc1cn(-c2ccc(Cl)cc2)nn1`, the figures for the ID50 with Mus musculus [1] and with Mus musculus [4] were 0.06859 µg/kg and 0.07984 µg/kg, respectively. Moreover, the IC50 at P2X purinoceptor 7 [2] was 67 nM; at P2X purinoceptor 7 [6], 59.2 nM; on P2X purinoceptor 7 [7], 5.3 nM; at P2X purinoceptor 7 [11] it was 41.1 nM. In addition, the outcome with Mus musculus [3] and in the data set on Mus musculus [9] was Active. In addition, in data set [5], the Papp A→B at 1 h, 100 µM is 77.4 ×10⁻⁶ cm/s. Further, the inhibition entry in [8] was “Active”. For the same molecule, the microsomal CLint at 1 µM in data set [10] turned out to be 22.2 µL/min/mg. Also, in the data set on Mus musculus [12], the outcome was inactive.
Turning to `O=C(O)Cc1ccccc1Nc1c(Cl)cccc1Cl` [DICLOFENAC], the outcome in the data set on Mus musculus [13], with Mus musculus [14], in the data set with Mus musculus [15], in the data set with Mus musculus [17] and in the data set with Mus musculus [18] was inactive. Moreover, the result with Mus musculus [16] was Active.

These data come from ChEMBL document CHEMBL4130413, “1-Aryl-1H- and 2-aryl-2H-1,2,3-triazole derivatives blockade P2X7 receptor in vitro and inflammatory response in vivo” (Eur J Med Chem, 2017).
